EP4620954A1, “CDK2 INHIBITOR, PREPARATION METHOD THEREFOR, AND USE THEREOF” (Shandong Luye Pharmaceutical Co., Ltd., priority 2022, dated 2024)
Read-outs that look alike come from different tables or passages of the source.

What was measured:
[1] = system: HCT116 cells; test: Antagonistic effect assay against HCT116 cell proliferation (CellTitle-Glo); format: cell-based; conditions: Homo sapiens, HCT-116, 72 h treatment, 0.01-10.00 µM, read-out: Antiproliferative IC50
Procedure: Frozen HCT116 cells were rapidly transferred from liquid nitrogen to a 37 °C water bath and rapidly shaken for thawing. The cell suspension was transferred to a 15 mL centrifuge tube and centrifuged at 1500 rpm for 5 min, and the supernatant was discarded. The cell pellet was resuspended in RPMI-1640 complete medium (containing 10% fetal bovine serum and 1% penicillin/streptomycin) and transferred to a cell culture dish containing 10 mL of medium. The cells were cultured in an incubator at 37 °C/5% CO2. The cells were passaged after adhesion to the wall.
HCT116 cells in the logarithmic growth phase and in good condition were taken, digested with a trypsin solution, resuspended in a certain amount of RPMI-1640 complete medium to form a single-cell suspension, counted on a cell counting plate, and seeded into a 96-well white plate at a density of 800 cells/well. The plate was left to stand for 5 min and then incubated in an incubator at 37 °C/5% CO2 overnight. The next day, the cells were treated with the compound at different concentrations, and the control group was treated with DMSO at the corresponding concentration. The compound, dissolved in DMSO, was diluted in RPMI-1640 complete medium at a ratio of 1:1000 to obtain final concentrations of 10.00 µM, 3.33 µM, 1.11 µM, 0.37 µM, 0.12 µM, 0.04 µM, and 0.01 µM. Each group was set up with 3 replicate wells, and 100 µL of the treatment solution was added to each well. The plate was incubated in an incubator at 37 °C/5% CO2 for 72 h.
After 72 h of treatment, the CellTitle-Glo assay was performed. 100 µL of CellTitle-Glo solution was added to each well of the control and treatment groups. The plate was mixed on an oscillator for 2 min to induce cell lysis. The 96-well plate was incubated at room temperature for 10 min to stabilize the luminescence signal value. The luminescence signal was measured using a microplate reader. The DMSO-treated cell group was used as the control group, and 50% inhibitory concentration (IC50) was calculated according to the median effect equation as follows: [formula]
The IC50 values of the compounds were calculated using GraphPad Prism nonlinear fitting equation. Table 2. Results for the inhibitory effect of the compounds of the present disclosure on HCT116 cell proliferation

[2] = In-vitro liver microsomal stability, rat; format: in vitro ADME; conditions: SD rat liver microsomes 0.5 mg/mL, 1 µM, NADPH 1 mM, 37 °C
Procedure: (§1) Method: The metabolic stability of test substances was evaluated by using human, dog, and SD rat liver microsomes. The test substances were incubated with liver microsomes from different species and NADPH in a water bath at 37 °C. In the incubation system, the final concentration of the test or control sample was 1 µM, the final concentration of liver microsomes was 0.5 mg/mL, the final concentration of NADPH was 1 mM, and the final concentration of MgCl2 was 3 mM. At designated time points (5 min, 10 min, 20 min, 30 min, and 60 min), the reaction was stopped by adding a cold acetonitrile solution containing tolbutamide (at a concentration of 200 ng/mL) as an internal standard. For the 0-min sample, the stop solution was added before the addition of the NADPH working solution. Testosterone and dextromethorphan were used as positive control samples in the same conditions to assess the stability and reliability of the system. After sample pretreatment, semiquantitative analysis was performed using the LC-MS/MS method. The retention times of the analytes and internal standard, the acquisition of chromatograms and the integration of chromatograms were processed using software Analyst (AB Sciex, Framingham, Massachusetts, USA). The remaining percentage of the test samples after 60 min of incubation was calculated, and the test results are shown in Table 3. Table 3. Test data for the compounds of the present disclosure in human, dog, and rat liver microsomes

[3] = Permeability and transporter substrate evaluation, Caco-2 monolayer; format: in vitro ADME; conditions: human, Caco-2, Table 4 experimental system, Caco-2, 2.00 µM
Procedure: (§2) Cell: Caco-2 cells Instrument: water purification equipment, ELGA LabWate; biosafety cabinet, Nuaire; thermostatic CO2 incubator, Thermo; microplate reader, PerkinElmer; LC-MS/MS, AB SCIEX. Method: The purpose of this study was to determine the two-way permeability of the compounds and evaluate whether they are effluxed and transported by P-glycoprotein (P-gp) using a Caco-2 monolayer cell model. In the experiment, Caco-2 cells were seeded into a 96-well cell plate and cultured for 24 consecutive days for the transport experiment. The compounds were administered bidirectionally at a concentration of 2.00 µM, with or without verapamil. After 120 min of incubation, the samples at the apical end A and the basal end B were collected. The content of the test samples in each sample was measured using the liquid chromatography-tandem mass spectrometry (LC-MS/MS) method. The apparent permeability coefficient and the efflux rate were calculated. Two experimental systems were used successively in this part, with the reference compound (PF-07104091) included. Table 4. Permeability test results

[4] = system: P-glycoprotein (P-gp); test: as above; format: in vitro ADME; conditions: human, Caco-2, Table 4 experimental system, Caco-2, 2.00 µM
Procedure: as §2

[5] = molecular target: T1, CDK2/Cyclin E1 (Homo sapiens, UniProt P24941); test: CDK2 kinase antagonistic activity assay (TR-FRET); format: biochemical; conditions: TR-FRET; peptide mix containing 10 µM ATP; 90 min at 23 °C; read-out: CDK2/Cyclin E1 IC50
T1 construct: purchased Invitrogen PV6296
Procedure: (§3) Compounds were dissolved in DMSO and serially diluted 3-fold to generate 11 concentrations. 100 nL of each compound was added to 384-well plates, followed by the addition of 5 µL of 2× CDK2/Cyclin E1 or CDK1/Cyclin B enzyme mixed solution. 5 µL of buffer (50 mM Hepes (pH 7.5), 10 mM MgCl2, 1 mM EDTA, 0.01% Brij-35, 2 mM DTT (prepared freshly)) was added to the complete inhibition control wells. The plates were centrifuged at 1000 rpm for 30 s and incubated at 23 °C for 15 min. Then, 5 µL of 2× MLight-MBP peptide (containing 10 µM ATP) was added to each well of each assay plate. The plates were centrifuged again at 1000 rpm for 30 s and incubated at 23 °C for 90 min.
After the incubation was completed, the reaction was stopped with a detection buffer containing 15 mM EDTA and 2 nM Eu-anti-P-MBP antibody. After centrifugation at 1000 rpm for about 1 min, the plates were incubated at 23 °C for 60 min and read on Perkin Elmer Envision. The TR-FRET ratio (value at 665 nm/value at 615 nm) was automatically calculated by Envision.
(§4) The IC50 values of the compounds were calculated using GraphPad Prism nonlinear fitting equation. Table 1. Kinase activity assay

[6] = molecular target: T2, CDK1/Cyclin B (Homo sapiens, UniProt P06493); test: CDK1 kinase activity assay (TR-FRET); format: biochemical
T2 construct: purchased Invitrogen PR4768C
T2 sequence (P06493 whole entry): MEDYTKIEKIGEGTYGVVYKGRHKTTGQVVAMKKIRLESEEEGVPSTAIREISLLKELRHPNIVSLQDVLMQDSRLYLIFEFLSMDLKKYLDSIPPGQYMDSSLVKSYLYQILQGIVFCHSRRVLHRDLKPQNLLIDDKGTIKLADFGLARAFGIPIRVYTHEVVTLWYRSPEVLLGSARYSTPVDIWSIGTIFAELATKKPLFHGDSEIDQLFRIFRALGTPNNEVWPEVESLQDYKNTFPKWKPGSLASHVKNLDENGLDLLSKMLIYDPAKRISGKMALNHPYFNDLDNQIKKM
T2 sequence (P14635 whole entry partner): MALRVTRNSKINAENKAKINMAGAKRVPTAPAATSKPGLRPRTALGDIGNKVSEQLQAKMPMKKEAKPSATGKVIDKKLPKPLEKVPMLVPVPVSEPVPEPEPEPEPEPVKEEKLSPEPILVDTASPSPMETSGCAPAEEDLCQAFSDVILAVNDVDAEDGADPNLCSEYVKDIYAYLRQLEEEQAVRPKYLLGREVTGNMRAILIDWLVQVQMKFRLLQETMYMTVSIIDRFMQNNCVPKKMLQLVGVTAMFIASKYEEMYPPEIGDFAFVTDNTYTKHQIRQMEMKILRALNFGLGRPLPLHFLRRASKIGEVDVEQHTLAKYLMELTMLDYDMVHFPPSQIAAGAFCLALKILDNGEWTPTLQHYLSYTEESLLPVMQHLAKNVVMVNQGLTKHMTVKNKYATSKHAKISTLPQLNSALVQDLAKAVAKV
Procedure: as §3
After the incubation was completed, the reaction was stopped with a detection buffer containing 15 mM EDTA and 2 nM Eu-anti-P-MBP antibody. After centrifugation at 1000 rpm for about 1 min, the plates were incubated at 23 °C for 60 min and read on Perkin Elmer Envision.
as §4

[7] = In-vitro liver microsomal stability, dog; format: in vitro ADME; conditions: dog liver microsomes 0.5 mg/mL, 1 µM, NADPH 1 mM, 37 °C
Procedure: as §1

[8] = In-vitro liver microsomal stability, human; format: in vitro ADME; conditions: human liver microsomes 0.5 mg/mL, 1 µM, NADPH 1 mM, 37 °C
Procedure: as §1

[9] = TR-FRET, peptide mix containing 10 µM ATP, 90 min at 23 °C, read-out: CDK1/Cyclin B1 IC50

Compound	IC50 [1] [nM]	Remaining amount% at 60 min Rat [2] [%]	Papp A→B at 120 min, 2 µM [3] [×10⁻⁶ cm/s]	Papp B→A at 120 min, 2 µM [3] [×10⁻⁶ cm/s]	efflux ratio at 120 min, 2 µM [4]	IC50 [5] [nM]	IC50 [6, 9] [nM]	Remaining amount% at 60 min Dog [7] [%]	Remaining amount% at 60 min Human [8] [%]	IC50 [6] [nM]
COCc1cc(C(=O)Nc2cc([C@H]3CC[C@@H](OC(=O)NC(C)C#N)C3)[nH]n2)n(C)n1 (stereo partly shown) [Compound 1]	3660	85.0	< 0.48	19.3	> 40.2	2.24	78.2	92.0	80.3	–
COCc1cc(C(=O)Nc2cc([C@H]3CC[C@@H](OC(=O)N(C)C4CCC(=C(F)F)CC4)C3)[nH]n2)n(C)n1 (stereo partly shown) [Compound 2]	2470	3.87	0.218	43.4	199	5.15	42.5	12.7	5.38	–
COCc1cc(C(=O)Nc2cc([C@H]3CC[C@@H](OC(=O)NCC=C(F)F)C3)[nH]n2)n(C)n1 [Compound 3]	2090	74.6	0.218	32.8	150	1.22	78.2	86.7	90.9	–
C#CC(C)NC(=O)O[C@@H]1CC[C@H](c2cc(NC(=O)c3cc(COC)nn3C)n[nH]2)C1 (stereo partly shown) [Compound 4]	2340	77.9	0.0791	30.8	390	2.58	460	77.9	93.5	–
COCc1cc(C(=O)Nc2cc([C@H]3CC[C@@H](OC(=O)NC45CC6CC(CC(C6)C4)C5)C3)[nH]n2)n(C)n1 [Compound 6]	2640	1.80	0.54	26.3	48.7	0.95	–	30.3	11.0	78.4
CC(C)NC(=O)O[C@@H]1CC[C@H](c2cc(NC(=O)c3cc(CS(C)(=O)=O)nn3C)n[nH]2)C1 [Compound 7]	2250	101	< 0.26	14.4	> 55.4	0.64	90	101	93.2	–
CC(C)NC(=O)O[C@@H]1CC[C@H](c2cc(Nc3ccc(N4CCN(C)CC4)cc3)n[nH]2)C1 [Compound 9]	2620	27.7	0.52	43.8	84.2	4.38	138	7.34	93.2	–
COCc1cc(C(=O)Nc2cc([C@H]3CC[C@@H](OC(=O)N4CC5(CCN(C)CC5)C4)C3)[nH]n2)n(C)n1 [Compound 10]	7110	92	–	–	–	8.71	–	95	103	–
COCc1cc(C(=O)Nc2cc([C@H]3C[C@@H](F)[C@@H](OC(=O)NC(C)C)C3)[nH]n2)n(C)n1 [Compound 11]	1610	104	–	–	–	1.07	–	99	105	–
Cn1nc(CS(C)(=O)=O)cc1C(=O)Nc1cc([C@@H]2C[C@H](OC(=O)N3CCC3(C)C)CO2)[nH]n1 [Compound 27]	3010	81.2	–	–	–	9.32	54.2	96.7	91.3	–
